Assay results taken from PMC8698721, “Exploration of the Structure–Function Relationships of a Novel Frog Skin Secretion-Derived Bioactive Peptide, t-DPH1, through Use of Rational Design, Cationicity Enhancement and In Vitro Studies” (Antibiotics, 2021).
≈ marks a conversion by molar mass, not a printed value. Like-named read-outs stand apart in the source and are kept apart here. Where a SMILES comes first, the peptide text is derived from it.

Tests used:
S. aureus (ATCC 6538) = type: cell-based, Staphylococcus aureus; conditions: ATCC 6538, 24 h
Description: (§1) To assess the antimicrobial activity of t-DPH1 and its designed analogues, MIC and MBC assays were conducted. Seven microorganism strains were used in the assay: Gram-positive bacteria S. aureus (ATCC 6538), E. faecalis (NCTC 12697) and MRSA (NCTC 12493); Gram-negative bacteria E. coli (ATCC 8739), P. aeruginosa (ATCC 9027) and K. pneumoniae (ATCC 43816); yeast, C. albicans (ATCC 10231).
(§2) For MIC assay, the microorganisms were initially incubated in Mueller-Hinton broth (MHB) (for bacteria) or yeast extract peptone dextrose broth (YPD-B) (for yeast) overnight and sub-cultured to achieve their respective logarithmic growth phases (5 × 10^5 CFU/mL). Then, 99 μL of each microorganism and 1 μL of the tested peptide solution were incubated in a 96-well plate. The final on-plate peptide concentrations were from 1 to 512 μM. Except for the peptide group, four other groups were set when conducting this experiment, including a negative control group (PBS), a vehicle control group (1% DMSO), a positive control group (bacteria: 20 μg/mL norfloxacin; yeast: amphotericin B) and a blank control group (MHB or YPD-B with no microorganism culture). Thus, the MIC value represents the lowest concentration of peptides at which no visible growth of the microorganism after 24 h incubation. For the MBC assay, 10 μL of the medium from each clear well was inoculated onto a Mueller–Hinton agar (MHA) (for bacteria) or yeast extract peptone dextrose agar (YPD-A) (for yeast) plate and incubated for 24 h for measurement MBC values.

[1] = tested on: Enterococcus faecalis (E. faecalis) (NCTC 12697); type: cell-based; conditions: NCTC 12697, 24 h
Description: as §1, §2

[2] = tested on: Methicillin-resistant Staphylococcus aureus (MRSA) (NCTC 12493); type: cell-based; conditions: NCTC 12493, 24 h
Description: as §1, §2

E. coli (ATCC 8739) = type: cell-based, Escherichia coli; conditions: ATCC 8739, 24 h
Description: as §1, §2

[3] = tested on: K. pneumoniae (ATCC 43816); type: cell-based, Klebsiella pneumoniae; conditions: ATCC 43816, 24 h
Description: as §1, §2

[4] = tested on: P. aeruginosa (ATCC 9027); type: cell-based, Pseudomonas aeruginosa; conditions: ATCC 9027, 24 h
Description: as §1, §2

C. albicans (ATCC 10231) = type: cell-based, Candida albicans; conditions: ATCC 10231, 24 h
Description: as §1, §2

[5] = tested on: HMEC-1 (human microvascular endothelial cell line); type: cell-based; conditions: 24 h
Description: (§3) The MTT assay was conducted to verify the proliferation inhibitory effect of t-DPH1 and its analogues. Human cancer cell lines (NCI-H838 (ATCC® CRL-5844, human non-small cell lung cancer)), (NCI-H157(ATCC® CRL-5802, human non-small cell lung cancer cell line)), (U251MG (ECACC 09063001, human neuronal glioblastoma cancer cell line)), (PC-3 (ATCC® CRL-1435TM, human prostate carcinoma cancer cell line)) and normal human cell lines (HMEC-1(ATCC®-CRL-3243, human microvascular endothelial cell line)) and (HaCaT (ATCC®-PCS-200-011, human keratinocyte cell)) were purchased from the American Type Culture Collection (ATCC, Manassas, VA, USA) and the European Collection of Cell Cultures (ECACC, Sallisbury, UK) for this assay. For the MTT assay, 8000 cells/per well were seeded in the 96-well plate for 24 h. Subsequently, experiment groups were dosed with fresh serum-free medium containing different concentrations of peptides (100 μM to 10 nM) in 3 replicates. Negative control groups and positive control groups were dosed with the fresh serum-free medium containing equal amounts of PBS, and 0.1% (w/v) Triton X-100, respectively. Then the 96-well plate was incubated at 37 °C with 5% CO2 for 24 h. After, ten microliters of MTT solution (5 mg/mL) (Sigma-Aldrich UK Ltd., Gillingham, UK) were added to each well and incubated in a dark environment for two hours. Then, the solution in each well was removed and 100 μL of DMSO were added and then the plate was shaken for 10 min on a shaking incubator before detecting the OD value by use of a Synergy HT plate reader (BioTek, Minneapolis, MN, USA) at λ = 570 nm.

[6] = tested on: HaCaT (human keratinocyte cell); type: cell-based; conditions: 24 h
Description: as §3

[7] = tested on: NCI-H157 (human non-small cell lung cancer cell line); type: cell-based; conditions: 24 h
Description: as §3

[8] = tested on: NCI-H838 (human non-small cell lung cancer); type: cell-based; conditions: 24 h
Description: as §3

[9] = tested on: PC-3 (human prostate carcinoma cancer cell line); type: cell-based; conditions: 24 h
Description: as §3

[10] = tested on: U251MG (human neuronal glioblastoma cancer cell line); type: cell-based; conditions: 24 h
Description: as §3

horse red blood cells = type: cell-based
Description: The haemolysis assay was performed by mixing 2% (v/v) fresh defibrinated horse blood (TCS Biosciences Ltd., Buckingham, UK) with peptides in different concentrations. Before the test, horse blood was rinsed with PBS three to four times until the supernatant was clear. Next, peptide solutions (from 100 μM to 1 nM) were incubated with the suspension of red blood cells at 37 °C for two hours. The blood cells treated with 1% Triton-X 100 were used as the positive control, and the blood cells treated with PBS were used as the negative control. After incubation, 100 μL of the supernatant from each sample were transferred to a new 96-well plate, and the OD value of each well was measured with a Synergy HT plate reader (BioTek, Minneapolis, MN, USA) with the absorbance set to 570 nm.

Row | MIC (S. aureus (ATCC 6538)) | MIC [1] | MIC [2] | MIC (E. coli (ATCC 8739)) | MIC [3] | MIC [4] | MIC (C. albicans (ATCC 10231)) | IC50 against HMEC-1 [5] | IC50 against HaCaT [6] | IC50 [7] | IC50 [8] | IC50 [9] | Structure (SMILES) | MBC (S. aureus (ATCC 6538)) | MBC [1] | MBC [2] | MBC (E. coli (ATCC 8739)) | MBC [3] | MBC [4] | MBC (C. albicans (ATCC 10231)) | other results
1 | 2 µM (≈ 4.22 µg/mL) | 8 µM (≈ 16.9 µg/mL) | 2 µM (≈ 4.22 µg/mL) | 2 µM (≈ 4.22 µg/mL) | 2 µM (≈ 4.22 µg/mL) | 4 µM (≈ 8.43 µg/mL) | 256 µM (≈ 540 µg/mL) | 3.897 µM | 3.332 µM | 1.55 µM | 1.8 µM | 2.6 µM | CC[C@H](C)[C@H](NC(=O)[C@H](CCCCN)NC(=O)[C@H](CCCCN)NC(=O)[C@H](Cc1c[nH]c2ccccc12)NC(=O)[C@H](CC(C)C)NC(=O)CN)C(=O)N[C@@H](CCCCN)C(=O)N[C@@H](CC(N)=O)C(=O)N[C@H](C(=O)N[C@@H](C)C(=O)N[C@@H](CCCCN)C(=O)N[C@@H](C)C(=O)N[C@@H](C)C(=O)NCC(=O)N[C@@H](CCCCN)C(=O)N[C@@H](C)C(=O)N[C@@H](C)C(=O)N[C@@H](CC(C)C)C(=O)NCC(=O)N[C@@H](C)C(=O)N[C@@H](CC(C)C)C(N)=O)C(C)C [t-DPH1-5K] (H-GLWKKIKNVAKAAGKAALGAL-NH2) | 2 µM (≈ 4.22 µg/mL) | 16 µM (≈ 33.7 µg/mL) | 4 µM (≈ 8.43 µg/mL) | 4 µM (≈ 8.43 µg/mL) | 4 µM (≈ 8.43 µg/mL) | 8 µM (≈ 16.9 µg/mL) | 512 µM (≈ 1080 µg/mL) | IC50 [10]: 2.68 µM; haemolysis (horse red blood cells; 10 µM): ~40%; HC50 (horse red blood cells; red cells of horse): 19.39 µM
2 | 128 µM (≈ 288 µg/mL) | 512 µM (≈ 1150 µg/mL) | 128 µM (≈ 288 µg/mL) | 2 µM (≈ 4.5 µg/mL) | 64 µM (≈ 144 µg/mL) | 64 µM (≈ 144 µg/mL) | 512 µM (≈ 1150 µg/mL) | 293.2 µM | 119.3 µM | 427 µM | 181 µM | 118 µM | CC[C@H](C)[C@H](NC(=O)[C@H](CCCCN)NC(=O)[C@H](CCCCN)NC(=O)[C@H](Cc1c[nH]c2ccccc12)NC(=O)[C@H](CC(C)C)NC(=O)[C@@H](N)Cc1c[nH]c2ccccc12)C(=O)N[C@@H](CCCCN)C(=O)N[C@@H](CC(N)=O)C(=O)N[C@H](C(=O)N[C@@H](C)C(=O)N[C@@H](CCCCN)C(=O)N[C@@H](C)C(=O)N[C@@H](C)C(=O)NCC(=O)N[C@@H](CCCCN)C(=O)N[C@@H](C)C(=O)N[C@@H](C)C(=O)N[C@@H](CCCCN)C(=O)NCC(=O)N[C@@H](C)C(=O)N[C@@H](CC(C)C)C(N)=O)C(C)C [t-DPH1-6KW] (H-WLWKKIKNVAKAAGKAAKGAL-NH2) | 128 µM (≈ 288 µg/mL) | > 512 µM | 256 µM (≈ 576 µg/mL) | 4 µM (≈ 9.01 µg/mL) | 64 µM (≈ 144 µg/mL) | 128 µM (≈ 288 µg/mL) | > 512 µM | HC50 (horse red blood cells): 2094 µM
